In patent publication US5125099A, “Obtaining heteropolysaccharide-producing microorganism and the microorganism agrobacterium radiobacter NCIB 40018” (Shell Internationale Research Maatschappij B.V., priority 1988, dated 1992):
“Also recorded” adds a separate entry of the source. Like-named read-outs stand apart in the source and are kept apart here.

How the values were obtained:
[1] = tested on: GBP2; assay: Effect of unlabelled glucose analogues on binding of [14C]glucose to GBP2, equilibrium dialysis; design: species or system Agrobacterium radiobacter; settings: for [14C]glucose bound GBP2: 0.5 nmol pure protein, 3 nmol [14C]glucose plus 120 nmol unlabelled analogue, 30 h, 4° C.; for Effect on binding of glucose to GBP2 (in words): competition with [14C]glucose in vitro
Experimental: (§1) The capacity of glucose analogues to reduce the extent of binding of D-[U-^14 C]glucose to pure proteins was determined by modifying the assay procedure as follows. One chamber of each cell contained 0.5 nmol pure protein in 0.3 ml bis-Tris, pH 6.8, and the other chamber was loaded with 0.3 ml of buffer containing 3 nmol D-[U-^14 C]glucose [85 mCi mmol^-1 (3.2 GBq mmol )] plus 120 nmol of an unlabelled glucose analogue. The quantity of [^14 C]glucose that bound to the proteins in the presence and absence of unlabelled glucose analogues was determined after 30 h incubation.

[2] = tested on: A. radiobacter strain AR18; assay: Effect of glucose analogues on [14C]glucose uptake by strain AR18 grown under glucose limitation; type: cell-based, Agrobacterium radiobacter; settings: for activity at 10000 µM: Agrobacterium radiobacter, AR18, pH 7, unlabelled sugars 10 mM, [14C]glucose 250M, glucose-limited culture D = 0.045 h^-1, control rate 72 nmol min^-1 (mg dry wt)^-1
Experimental: (§2) Measurement of glucose uptake. […] Assays were carried out in an open-topped Rank oxygen electrode vessel containing 1 ml 20 mM HEPES/KOH buffer, pH 7.0, and 1 mg dry wt cells. The contents of the vessel were maintained at 30° C. and mixed continuously using a magnetic stirrer. […] Samples (50 ul) of the reaction mixture were withdrawn at 15 s intervals and the cells were collected on nitrocellulose filters of 0.45 uM pore size (2.5 cm dia.; Sartorius) by means of a manifold connected to a vacuum line. The filters were washed immediately using 3 ml 20 mM HEPES, pH 7.0, dried under an infra-red lamp and then immersed in 3 ml of Fisofluor 3 scintillant (Fisons Ltd.).

[3] = tested on: whole cells of A. radiobacter; assay: [14C]glucose uptake by whole cells grown under glucose limitation; type: cell-based, Agrobacterium radiobacter NCIB 11883; settings: for Effect on rate of [14C]glucose uptake by whole cells (in words): unlabelled analogue at 40:1 molar excess, glucose-limited cells; for Glucose uptake rate after pre-incubation with respiratory substrate (in words): 10 mM, pre-incubated before addition of [14C]glucose
Experimental: Organism and growth conditions. Agrobacterium radiobacter NCIB 11883 was grown at 30° C. in continuous culture (D=0.045 h^-1) under glucose limitation using a chemically defined medium (Linton et al., 1987) supplemented with glucose (4 gl^-1), ammonium sulfate (3 gl^-1) and nitrilotriacetic acid (0.142 gl^-1). The organism was grown in an LH Series 500 chemostat of 2 l working volume at a steady-state biomass density of 2.1 g dry wt 1^-1.
Measurement of glucose uptake. Rates of glucose uptake were determined by measuring the incorporation of D-[U-^14 C]glucose into whole cells over a period of 60 s. Assays were carried out in an open-topped Rank oxygen electrode vessel containing 1 ml 20 mM HEPES/KOH buffer, pH 7.0, and 1 mg dry wt cells. The contents of the vessel were maintained at 30° C. and mixed continuously using a magnetic stirrer. Assays were started by adding D-[U-^14 C]glucose [2 mCi mmol^-1 (74 MBq mmol^-1; 0.5 uCi (18.5 KBl)] to give a final concentration of 250 uM. Samples (50 ul) of the reaction mixture were withdrawn at 15 s intervals and the cells were collected on nitrocellulose filters of 0.45 uM pore size (2.5 cm dia.; Sartorius) by means of a manifold connected to a vacuum line. The filters were washed immediately using 3 ml 20 mM HEPES, pH 7.0, dried under an infra-red lamp and then immersed in 3 ml of Fisofluor 3 scintillant (Fisons Ltd.). The extent of incorporation of [^14 C]glucose into the cells was determined by counting the radioactivity on the filters using a Hewlett Packard Tri-Carb liquid scintillation counter (80-85% efficiency).
In order to measure glucose uptake rates at low concentrations of substrate (1-5 uM) the cell density was reduced to 0.01 mg ml^-1, the specific activity of the [^14 C]glucose was increased to 84 mCi mmol^-1 (3.2 Gbq mmol^-1) and the rate of incorporation of ^14 C-label into cells was measured over a period of 35 s.
The substrate specificity of the transport system was investigated by determining the extent to which unlabelled glucose analogues (10 mM) reduced the rate of uptake of [^14 C]glucose (250 uM). Cell suspensions were incubated with analogues for 5 s prior to addition of [^14 C]glucose.

[4] = tested on: A. radiobacter strain AR9; assay: Effect of glucose analogues on [14C]glucose uptake by strain AR9 grown under glucose limitation; type: cell-based, Agrobacterium radiobacter; settings: for activity at 10000 µM: Agrobacterium radiobacter, AR9, pH 7, unlabelled sugars 10 mM, [14C]glucose 250M, glucose-limited culture D = 0.045 h^-1, control rate 63 nmol min^-1 (mg dry wt)^-1
Experimental: as §2

[5] = tested on: GBP1; assay: Effect of unlabelled glucose analogues on binding of [14C]glucose to GBP1, equilibrium dialysis; design: species or system Agrobacterium radiobacter; settings: for [14C]glucose bound GBP1: 0.5 nmol pure protein, 3 nmol [14C]glucose plus 120 nmol unlabelled analogue, 30 h, 4° C.; for Effect on binding of glucose to GBP1 (in words): competition with [14C]glucose in vitro
Experimental: as §1

[6] = tested on: third protein (Mr 30500), BP3; assay: Binding of [14C]glucose to the third periplasmic protein (BP3), equilibrium dialysis; design: species or system Agrobacterium radiobacter
Experimental: (§3) Determination of binding constants using equilibrium dialysis. This was carried out at 4° C. using an eight-cell rotating module (Hoefer Scientific Instruments, San Fransisco, Calif., U.S.A.). Each cell was divided into two chambers of 0.5 ml volume using a dialysis membrane (Mr cut-off=6-8000). Pure protein (0.5 nmol) was added to one chamber of each cell in 0.3 ml bis-Tris, pH 6.8. Each of the opposing chambers was loaded with 0.3 ml bis-Tris (0.3 ml) containing D-[U-^14 C]glucose [270 mCi mmol^-1 (10 GBq mmol^-1)], the concentration of which was varied over an appropriate range. The module was rotated at 10 rev min^-1 for 30 h (by which time equilibrium had been attained) and samples (50 ul) were taken in triplicate from each chamber and counted in 3 ml Fisofluor 2 (Fisons Ltd.). The data were analyzed according to the method of Scatchard (1949).

[7] = molecular target: GBP2; assay: Binding of [14C]glucose to pure GBP2, equilibrium dialysis, Scatchard analysis; design: species or system Agrobacterium radiobacter
Experimental: as §3

[8] = tested on: whole cells of A. radiobacter; assay: Capacity of whole cells to accumulate [14C]glucose; type: cell-based, Agrobacterium radiobacter NCIB 11883
Experimental: The capacity of A. radiobacter to accumulate glucose was determined by incubating cell suspensions (1 mg dry wt ml^-1) with D-[U-^14 C]glucose [84 mCi mmol^-1 (3.2 Gbq mmol^-1); 20M initial concentration). Samples (100 ul) of the suspension were withdrawn 10s after adding the glucose and the cells were collected on nitrocellulose filters (0.45 um pore size) using vacuum filtration. The filters were washed immediately using 3 ml buffer and immersed in 20 ml boiling water. Aqueous extracts prepared from four filters were pooled, lyophilized and the residue dissolved in 2 ml water. The glucose content of the cells was determined using liquid scintillation counting following separation of [^14 C]glucose from other labelled metabolites present in the extracts using paper chromatography. Samples of the filtrate plus washings were also counted in order to determine the extracellular concentration of glucose at the time of sampling.

[9] = molecular target: GBP1; assay: Binding of [14C]glucose to pure GBP1, equilibrium dialysis, Scatchard analysis; design: species or system Agrobacterium radiobacter
Experimental: as §3

[10] = glucose-limited culture, unlabelled sugar 10 mM

Structure (SMILES) | [14C]glucose bound GBP2 [1] | Effect on binding of glucose to GBP2 (in words) [1] | activity at 10000 µM [2] | activity at 10000 µM [4] | [14C]glucose bound GBP1 [5] | Effect on binding of glucose to GBP1 (in words) [5] | also measured
O=CC[C@@H](O)[C@H](O)[C@H](O)CO [2-deoxy-D-glucose] | 98 % control value | did not affect | 93% | 71% | 96 % control value | did not affect | Effect on binding of glucose to GBP2 (in words) ([1]; listed as 2-Deoxy-D-glucose): had no effect; Effect on rate of glucose uptake by strain AR18 (in words) [2, 10]: reduced the rate of glucose uptake to a relatively small extent; Effect on rate of [14C]glucose uptake by whole cells (in words) [3]: none of these unlabelled analogues appreciably reduced; also recorded: failed to reduce significantly; Effect on rate of glucose uptake by strain AR9 (in words) [4, 10]: reduced the rate of glucose uptake to a relatively small extent; Effect on binding of glucose to GBP1 (in words) ([5]; listed as 2-Deoxy-D-glucose): had no effect
CO[C@H]1[C@H](O)[C@@H](CO)OC(O)[C@@H]1O (stereo partly drawn) [3-O-methyl-D-glucose] | 103 % control value | did not affect | 111% | 99% | 100 % control value | did not affect | Effect on rate of [14C]glucose uptake by whole cells (in words) [3]: none of these unlabelled analogues appreciably reduced; also recorded: failed to reduce significantly
OC1O[C@H](CCl)[C@@H](O)[C@H](O)[C@H]1O (stereo partly drawn) [6-chloro-6-deoxy-D-glucose] | 60 % control value | variably decreased; also recorded: significantly reduced | 8% | 33% | 0 % control value | variably decreased; also recorded: significantly reduced | 
C[C@@H](O)[C@@H](O)[C@H](O)[C@@H](O)C=O [6-deoxy-D-glucose] | 0 % control value | variably decreased; also recorded: significantly reduced | 27% | 11% | 51 % control value | variably decreased; also recorded: significantly reduced | 
C[C@@H](O)[C@H](O)[C@H](O)[C@@H](O)C=O [D-fucose] | 99 % control value | only effective with GBP1 | 18% | 68% | 31 % control value | only effective with GBP1 | 
O=C[C@H](O)[C@@H](O)[C@H](O)[C@H](O)CO [D-glucose] | 4 % control value |  | 4% | 4% | 4 % control value |  | Binding of D-glucose to the third protein (Mr 30500) (in words) [6]: no binding ability; Kd ([7]; as printed in the summary, read-out: KD of D-glucose for GBP2 (summary)): 70 nM; Kd ([7]; equilibrium dialysis, 4° C., pH 6.8, read-out: KD of glucose for GBP2): 70 nM; Accumulation ratio ([glucose]in/[glucose]out) [8]: > 2000; Accumulation ratio ([glucose]in/[glucose]out) ([8]; 10 s incubation, assuming an intracellular volume of 1-3 ul mg dry wt^-1): 2000-6000; Km ([3]; [14C]glucose varied over the range 1 M-1 mM, whole cells): < 1 µM; Kd ([9]; as printed in the summary, read-out: KD of D-glucose for GBP1 (summary)): 230 nM; Kd ([9]; equilibrium dialysis, 4° C., pH 6.8, read-out: KD of glucose for GBP1): 230 nM
O=C[C@H](O)[C@@H](O)[C@H](O)CO [D-xylose] | 2 % control value | significantly reduced | 64% |  | 72 % control value | significantly reduced | 
N#CC(C#N)=NNc1ccc(OC(F)(F)F)cc1 [FCCP, carbonyl cyanide p-trifluoromethoxyphenylhydrazone] |  |  |  |  |  |  | Inhibition of glucose transport ([3]; at 20 M, added 10 s before glucose): approximately 95%
CO[C@H]1O[C@H](CO)[C@@H](O)[C@H](O)[C@H]1O [alpha-1-O-methyl-D-glucose] | 104 % control value | did not affect | 111% | 99% | 99 % control value | did not affect | Effect on rate of [14C]glucose uptake by whole cells (in words) [3]: none of these unlabelled analogues appreciably reduced; Effect on rate of [14C]glucose uptake by whole cells (in words) ([3]; listed as Alpha-1-O-methyl-D-glucose): failed to reduce significantly
CCO [ethanol] |  |  |  |  |  |  | Glucose uptake rate after pre-incubation with respiratory substrate (in words) [3]: did not increase
OCC(O)CO [glycerol] |  |  |  |  |  |  | Glucose uptake rate after pre-incubation with respiratory substrate (in words) [3]: did not increase
